According to US8940736B2, “Imidazotriazinecarbonitriles useful as kinase inhibitors” (Bristol-Myers Squibb Company, priority 2012, dated 2015):

Legend:
recombinant CK2A1 = recombinant CK2A1 (Homo sapiens (Human), UniProt P68400); assay: CK2 kinase assay (CK2A1); assay type: biochemical; conditions: Table B, comparison compound of WO 2007/038314 / US 2008/0045536
recombinant CK2A2 = recombinant CK2A2 (Homo sapiens (Human), UniProt P19784); assay: CK2 kinase assay (CK2A2); assay type: biochemical; conditions: Table B, comparison compound of WO 2007/038314 / US 2008/0045536
Chain of recombinant CK2A2 (P19784 whole entry): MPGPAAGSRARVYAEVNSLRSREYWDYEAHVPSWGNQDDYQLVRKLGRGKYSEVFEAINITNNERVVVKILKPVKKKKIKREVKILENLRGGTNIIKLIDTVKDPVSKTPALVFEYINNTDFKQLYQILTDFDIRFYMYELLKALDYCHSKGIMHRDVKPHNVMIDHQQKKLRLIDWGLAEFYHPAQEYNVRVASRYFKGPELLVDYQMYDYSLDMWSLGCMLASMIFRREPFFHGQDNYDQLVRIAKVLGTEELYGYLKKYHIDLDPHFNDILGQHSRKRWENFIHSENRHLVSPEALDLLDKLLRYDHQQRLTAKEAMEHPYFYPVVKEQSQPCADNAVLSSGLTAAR

Chain of recombinant CK2A1 (P68400 whole entry): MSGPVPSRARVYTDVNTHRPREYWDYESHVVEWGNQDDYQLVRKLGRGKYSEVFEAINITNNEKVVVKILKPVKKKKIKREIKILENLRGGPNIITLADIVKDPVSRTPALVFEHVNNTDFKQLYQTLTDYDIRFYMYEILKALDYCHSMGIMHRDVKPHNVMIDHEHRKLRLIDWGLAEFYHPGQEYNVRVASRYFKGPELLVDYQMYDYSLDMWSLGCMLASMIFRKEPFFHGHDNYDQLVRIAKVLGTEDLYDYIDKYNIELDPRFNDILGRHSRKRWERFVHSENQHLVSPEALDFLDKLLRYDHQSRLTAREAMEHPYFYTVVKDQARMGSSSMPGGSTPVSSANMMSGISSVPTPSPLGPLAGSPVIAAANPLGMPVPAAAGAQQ

IC50 (recombinant CK2A1): 1800 nM
IC50 (recombinant CK2A2): 331 nM
Compound: CCOc1ccc(Nc2nc(N[C@H]3CC[C@@H](N)CC3)nn3ccnc23)cc1 [XIII]
